IC50 data for 2 compounds are collected here from ChEMBL document CHEMBL1201862, “PubChem BioAssay data set” (2004).

Activity calls are given as the source filed them. Cut-off read from the data, not from the text of the source: actives have a measured IC50 and inactives only a lower limit.

The target of this assay is Envelope glycoprotein gp160 (Human immunodeficiency virus 1, UniProt Q6QLK5). Put plainly: cell-free HIV fusion peptide-binding blockers – biochemical, uHTS, fluorescence dequenching, […] (AID 1986).
Chain of Envelope glycoprotein gp160 (Q6QLK5 whole entry, the tested form may be a part): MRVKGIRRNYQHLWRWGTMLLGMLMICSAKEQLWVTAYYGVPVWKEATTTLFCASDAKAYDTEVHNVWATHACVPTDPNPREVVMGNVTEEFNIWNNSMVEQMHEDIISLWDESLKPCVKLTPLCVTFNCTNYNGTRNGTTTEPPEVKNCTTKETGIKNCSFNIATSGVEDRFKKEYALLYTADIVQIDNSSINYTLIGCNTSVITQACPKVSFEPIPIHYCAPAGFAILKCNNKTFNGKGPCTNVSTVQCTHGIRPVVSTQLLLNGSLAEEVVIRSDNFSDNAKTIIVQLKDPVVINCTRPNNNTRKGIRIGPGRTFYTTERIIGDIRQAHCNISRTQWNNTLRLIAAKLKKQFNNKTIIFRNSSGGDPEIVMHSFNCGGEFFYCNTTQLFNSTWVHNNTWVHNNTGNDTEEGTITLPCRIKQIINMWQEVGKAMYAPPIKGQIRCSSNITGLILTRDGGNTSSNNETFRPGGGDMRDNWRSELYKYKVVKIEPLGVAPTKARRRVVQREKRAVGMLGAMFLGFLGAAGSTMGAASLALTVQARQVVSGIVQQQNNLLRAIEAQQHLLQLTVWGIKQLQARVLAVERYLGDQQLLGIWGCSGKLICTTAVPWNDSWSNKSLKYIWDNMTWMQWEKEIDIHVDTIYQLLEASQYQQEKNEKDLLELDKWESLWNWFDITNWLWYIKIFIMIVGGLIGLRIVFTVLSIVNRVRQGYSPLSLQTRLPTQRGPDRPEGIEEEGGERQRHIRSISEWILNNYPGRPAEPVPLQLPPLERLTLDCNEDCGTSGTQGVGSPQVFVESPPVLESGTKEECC

For `O=C(N/N=C/c1cc(Cl)cc([N+](=O)[O-])c1O)c1ccccc1NS(=O)(=O)c1cccs1`, the half-maximal inhibitory concentration (IC50) (as a rule, the concentration that gives 50% inhibition) is 13.6 µM (active). The result for `COc1cc(OC)c2c(O)c3c(c(-c4c5c(c(O)c6c(OC)cc(OC)cc46)CO[C@@H](C)[C@H]5O)c2c1)[C@H](O)[C@H](C)OC3` reads 10.1 µM (active).
